Results reported in paper PMC2787699 (Biochemistry, 2009).

Target: T1, TalrD/GalrD (Salmonella enterica, UniProt Q8ZL58)
T1 sequence (Q8ZL58 1-398): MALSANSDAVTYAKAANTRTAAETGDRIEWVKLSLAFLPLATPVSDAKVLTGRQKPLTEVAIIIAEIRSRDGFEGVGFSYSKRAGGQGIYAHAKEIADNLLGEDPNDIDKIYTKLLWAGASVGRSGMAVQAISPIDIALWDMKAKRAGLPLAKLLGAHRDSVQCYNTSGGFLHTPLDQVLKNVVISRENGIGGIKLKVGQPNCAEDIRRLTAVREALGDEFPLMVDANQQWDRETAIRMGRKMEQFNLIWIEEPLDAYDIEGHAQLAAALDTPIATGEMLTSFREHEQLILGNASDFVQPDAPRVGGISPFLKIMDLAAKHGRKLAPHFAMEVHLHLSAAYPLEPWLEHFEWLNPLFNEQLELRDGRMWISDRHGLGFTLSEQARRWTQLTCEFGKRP
Test: polarimetry at […] nm, product formation
Type: biochemical
Conditions: 10 mM galactarate, 50 mM Hepes pH 8.0, 5 mM MgCl2, room temperature

O=C(O)[C@@H](O)[C@H](O)[C@H](O)[C@@H](O)C(=O)O [galactarate]
polarimetry at 589 nm, product formation: TalrD/GalrD produces a product with a positive rotation
